Measurements as given in patent publication US20120108557A1, “FLUOROQUINOLONE DERIVATIVES FOR OPHTHALMIC APPLICATIONS” (ALCON RESEARCH, LTD., priority 2008, published 2012).

How the values were obtained:
Assay in all cases: In vitro antimicrobial activity, agar dilution MIC
Format in all cases: cell-based
[1] = test system: Morganella morganii
Description: (§1) The activity of the compounds of the present invention was evaluated using an in vitro assay. Microorganisms were prepared from growth on agar media, in broth culture, or from thawed cryopreserved cultures. Fungal cultures were filtered to remove mycelial elements.
(§2) Using Mueller Hinton II Broth, 0.9% saline or other appropriate media, a suspension of each culture was prepared and adjusted to a turbidity equivalent to that of a 0.5 McFarland Standard. (Cultures adjusted to the 0.5 McFarland Standard generally contain approximately 1.0×10^8 CFU/mL). The adjusted suspension for each culture was diluted 1:10 in the appropriate media so that the inoculum concentration approximates 1.0×10^7 CFU/mL.
(§3) The antimicrobial agent to be tested was weighed and diluted with a volume of sterile distilled water calculated to yield the necessary starting concentration. Serial 1:2 dilutions of the antimicrobial agent in sterile distilled water were prepared (approximately 10-12 test concentrations comprise a reasonable experimental range). A known amount of each antimicrobial dilution was combined with an aliquot of agar medium calculated to yield the desired final antimicrobial test concentration and dispensed onto plates.
(§4) The amount of antimicrobial agent to be weighed was determined using the following equation: […]
(§5) Antimicrobial stock solutions were prepared at concentrations 5-10 times the highest concentration to be tested (routinely 1024 μg/mL). […] The stock solution was diluted to appropriate concentration using sterile water to form a working solution. The working solution was diluted two-fold, in sterile water, until the desired concentration is obtained.
(§6) Mueller Hinton II agar was prepared as described by the manufacturer. Mueller Hinton II agar may be supplemented with 5% defibrinated sheep blood for testing streptococci. Agar was added to the serially diluted antimicrobial solution in each container. The solutions were mixed thoroughly and poured into petri dishes (about 25 mL/plate). The pH of the agar at 25° C. should be between 7.2 and 7.4.
(§7) At least one inocula control plate was inoculated (agar medium without antimicrobial agent) from each seed plate before inoculating test plates. Test plates were inoculated starting at the lowest concentration and proceeding to the highest concentration. After all test plates were inoculated, an additional control plate (agar medium without antimicrobial agent) was inoculated. The plates were incubated in a non-CO2 incubator (or CO2 incubator depending on growth requirements); 18-24 hours at 32-35° C. was sufficient for most organisms.
(§8) All inoculation points on the agar surface were examined for the presence of growth as compared to the inoculum control plates. The results were summarized and use to determine Minimal Inhibitory Concentrations (MICs): The MIC is the lowest concentration of the antimicrobial agent which prevents visible growth of the organism (negative score).

[2] = test system: MRSE
Description: as §1, §2, §3, §4, §5, §6, §7, §8

[3] = test system: MRSA
Description: as §1, §2, §3, §4, §5, §6, §7, §8

[4] = test system: Pseudomonas aeruginosa
Description: as §1, §2, §3, §4, §5, §6, §7, §8

[5] = test system: Staphylococcus epidermidis
Description: as §1, §2, §3, §4, §5, §6, §7, §8

[6] = test system: Stenotrophomonas maltophilia
Description: as §1, §2, §3, §4, §5, §6, §7, §8

[7] = test system: Streptococcus mitis
Description: as §1, §2, §3, §4, §5, §6, §7, §8

[8] = test system: Streptococcus pneumoniae
Description: as §1, §2, §3, §4, §5, §6, §7, §8

[9] = test system: Staphylococcus haemolyticus
Description: as §1, §2, §3, §4, §5, §6, §7, §8

[10] = test system: Serratia marcescens
Description: as §1, §2, §3, §4, §5, §6, §7, §8

[11] = test system: Enterococcus faecalis
Description: as §1, §2, §3, §4, §5, §6, §7, §8

[12] = test system: Escherichia coli
Description: as §1, §2, §3, §4, §5, §6, §7, §8

[13] = test system: Acinetobacter baumannii; settings: test organism 26, Acinetobacter baumannii
Description: as §1, §2, §3, §4, §5, §6, §7, §8

[14] = test system: Corynebacterium amycolatum
Description: as §1, §2, §3, §4, §5, §6, §7, §8

[15] = test system: Staphylococcus aureus
Description: as §1, §2, §3, §4, §5, §6, §7, §8

[16] = test system: Acinetobacter junii
Description: as §1, §2, §3, §4, §5, §6, §7, §8

[17] = test system: MSSA; settings: test organism 6, MSSA
Description: as §1, §2, §3, §4, §5, §6, §7, §8

[18] = test system: Enterobacter hormaechei
Description: as §1, §2, §3, §4, §5, §6, §7, §8

[19] = test organism 35, Morganella morganii
[20] = test organism 36, Morganella morganii
[21] = test organism 37, Pseudomonas aeruginosa
[22] = test organism 38, Pseudomonas aeruginosa
[23] = test organism 7, Staphylococcus epidermidis
[24] = test organism 8, Staphylococcus epidermidis
[25] = test organism 41, Stenotrophomonas maltophilia
[26] = test organism 42, Stenotrophomonas maltophilia
[27] = test organism 21, Streptococcus mitis
[28] = test organism 22, Streptococcus mitis
[29] = test organism 23, Streptococcus mitis
[30] = test organism 19, Streptococcus pneumoniae
[31] = test organism 20, Streptococcus pneumoniae
[32] = test organism 12, Staphylococcus haemolyticus
[33] = test organism 13, Staphylococcus haemolyticus
[34] = test organism 14, Staphylococcus haemolyticus
[35] = test organism 39, Serratia marcescens
[36] = test organism 40, Serratia marcescens
[37] = test organism 15, Enterococcus faecalis
[38] = test organism 16, Enterococcus faecalis
[39] = test organism 17, Enterococcus faecalis
[40] = test organism 18, Enterococcus faecalis
[41] = test organism 32, Escherichia coli
[42] = test organism 33, Escherichia coli
[43] = test organism 34, Escherichia coli
[44] = test organism 24, Corynebacterium amycolatum
[45] = test organism 25, Corynebacterium amycolatum
[46] = test organism 1, Staphylococcus aureus
[47] = test organism 2, Staphylococcus aureus
[48] = test organism 27, Acinetobacter junii
[49] = test organism 28, Acinetobacter junii
[50] = test organism 29, Acinetobacter junii
[51] = test organism 31, Enterobacter hormaechei

Structure (SMILES): CN1CCCC2CN(c3c(F)cc4c(=O)c(C(=O)O)cn(C5CC5)c4c3F)CC21 (centres unmarked) [Compound 1]
- Minimal Inhibitory Concentration (MIC) [1, 19]: 0.5
- Minimal Inhibitory Concentration (MIC) [1, 20]: 2
- Minimal Inhibitory Concentration (MIC) ([2]; test organism 9, MRSE): >2
- Minimal Inhibitory Concentration (MIC) ([2]; test organism 10, MRSE): >2
- Minimal Inhibitory Concentration (MIC) ([2]; test organism 11, MRSE): >4
- Minimal Inhibitory Concentration (MIC) ([3]; test organism 3, MRSA): >2
- Minimal Inhibitory Concentration (MIC) ([3]; test organism 4, MRSA): 4
- Minimal Inhibitory Concentration (MIC) ([3]; test organism 5, MRSA): >2
- Minimal Inhibitory Concentration (MIC) [4, 21]: >4
- Minimal Inhibitory Concentration (MIC) [4, 22]: 2
- Minimal Inhibitory Concentration (MIC) [5, 23]: 0.25
- Minimal Inhibitory Concentration (MIC) [5, 24]: >2
- Minimal Inhibitory Concentration (MIC) [6, 25]: >4
- Minimal Inhibitory Concentration (MIC) [6, 26]: 0.25
- Minimal Inhibitory Concentration (MIC) [7, 27]: 0.5
- Minimal Inhibitory Concentration (MIC) [7, 28]: 0.25
- Minimal Inhibitory Concentration (MIC) [7, 29]: 2
- Minimal Inhibitory Concentration (MIC) [8, 30]: 0.125
- Minimal Inhibitory Concentration (MIC) [8, 31]: 0.5
- Minimal Inhibitory Concentration (MIC) [9, 32]: 0.25
- Minimal Inhibitory Concentration (MIC) [9, 33]: 2
- Minimal Inhibitory Concentration (MIC) [9, 34]: >4
- Minimal Inhibitory Concentration (MIC) [10, 35]: 1
- Minimal Inhibitory Concentration (MIC) [10, 36]: 1
- Minimal Inhibitory Concentration (MIC) [11, 37]: 0.5
- Minimal Inhibitory Concentration (MIC) [11, 38]: >2
- Minimal Inhibitory Concentration (MIC) [11, 39]: >4
- Minimal Inhibitory Concentration (MIC) [11, 40]: >2
- Minimal Inhibitory Concentration (MIC) [12, 41]: 0.06
- Minimal Inhibitory Concentration (MIC) [12, 42]: ≦0.25
- Minimal Inhibitory Concentration (MIC) [12, 43]: >4
- Minimal Inhibitory Concentration (MIC) [13]: 0.5
- Minimal Inhibitory Concentration (MIC) [14, 44]: 0.06
- Minimal Inhibitory Concentration (MIC) [14, 45]: >4
- Minimal Inhibitory Concentration (MIC) [15, 46]: 0.06
- Minimal Inhibitory Concentration (MIC) [15, 47]: ≦0.25
- Minimal Inhibitory Concentration (MIC) [16, 48]: ≦0.25
- Minimal Inhibitory Concentration (MIC) [16, 49]: ≦0.03
- Minimal Inhibitory Concentration (MIC) [16, 50]: 2
- Minimal Inhibitory Concentration (MIC) [17]: >4
- Minimal Inhibitory Concentration (MIC) [18, 51]: 4

Structure (SMILES): CN1CCCC2CN(c3cc4c(cc3F)c(=O)c(C(=O)O)cn4C3CC3)CC21 (centres unmarked) [Compound 2]
- Minimal Inhibitory Concentration (MIC) [1, 19]: 1
- Minimal Inhibitory Concentration (MIC) [1, 20]: 2
- Minimal Inhibitory Concentration (MIC) ([2]; test organism 9, MRSE): >2
- Minimal Inhibitory Concentration (MIC) ([2]; test organism 10, MRSE): >2
- Minimal Inhibitory Concentration (MIC) ([2]; test organism 11, MRSE): >4
- Minimal Inhibitory Concentration (MIC) ([3]; test organism 3, MRSA): >2
- Minimal Inhibitory Concentration (MIC) ([3]; test organism 4, MRSA): >4
- Minimal Inhibitory Concentration (MIC) ([3]; test organism 5, MRSA): >2
- Minimal Inhibitory Concentration (MIC) [4, 21]: >4
- Minimal Inhibitory Concentration (MIC) [4, 22]: >4
- Minimal Inhibitory Concentration (MIC) [5, 23]: 2
- Minimal Inhibitory Concentration (MIC) [5, 24]: >2
- Minimal Inhibitory Concentration (MIC) [6, 25]: >4
- Minimal Inhibitory Concentration (MIC) [6, 26]: 2
- Minimal Inhibitory Concentration (MIC) [7, 27]: ≦0.25
- Minimal Inhibitory Concentration (MIC) [7, 28]: 0.5
- Minimal Inhibitory Concentration (MIC) [7, 29]: >4
- Minimal Inhibitory Concentration (MIC) [8, 30]: 0.5
- Minimal Inhibitory Concentration (MIC) [8, 31]: ≦0.25
- Minimal Inhibitory Concentration (MIC) [9, 32]: 1
- Minimal Inhibitory Concentration (MIC) [9, 33]: >4
- Minimal Inhibitory Concentration (MIC) [9, 34]: >4
- Minimal Inhibitory Concentration (MIC) [10, 35]: 4
- Minimal Inhibitory Concentration (MIC) [10, 36]: 4
- Minimal Inhibitory Concentration (MIC) [11, 37]: 1
- Minimal Inhibitory Concentration (MIC) [11, 38]: ≦0.25
- Minimal Inhibitory Concentration (MIC) [11, 39]: >4
- Minimal Inhibitory Concentration (MIC) [11, 40]: >2
- Minimal Inhibitory Concentration (MIC) [12, 41]: 0.25
- Minimal Inhibitory Concentration (MIC) [12, 42]: ≦0.25
- Minimal Inhibitory Concentration (MIC) [12, 43]: >4
- Minimal Inhibitory Concentration (MIC) [13]: ≦0.25
- Minimal Inhibitory Concentration (MIC) [14, 44]: ≦0.03
- Minimal Inhibitory Concentration (MIC) [14, 45]: >4
- Minimal Inhibitory Concentration (MIC) [15, 46]: 0.125
- Minimal Inhibitory Concentration (MIC) [15, 47]: ≦0.25
- Minimal Inhibitory Concentration (MIC) [16, 48]: ≦0.25
- Minimal Inhibitory Concentration (MIC) [16, 49]: 0.25
- Minimal Inhibitory Concentration (MIC) [16, 50]: >4
- Minimal Inhibitory Concentration (MIC) [17]: >4
- Minimal Inhibitory Concentration (MIC) ([18]; test organism 30, Enterobacter hormaechei): 0.25
- Minimal Inhibitory Concentration (MIC) [18, 51]: >4
